Measured values reported in patent publication US9957288B2, “Pyrabactin analogues to modulate plant development” (Universiteit Gent, priority 2014, dated 2018).
Entries after “also recorded” stand apart in the source; their conditions may differ. Read-outs that look alike come from different tables or passages of the source.

Experiments:
[1] = system: Arabidopsis thaliana Columbia (Col0) seedlings; experiment: Primary root elongation of etiolated seedlings on compound medium; assay type: in vivo
[2] = system: Arabidopsis thaliana Columbia (Col0) seedlings; experiment: Lateral root initiation (lateral roots + lateral root primordia, number and density); assay type: in vivo
[3] = system: Arabidopsis thaliana seeds; experiment: Arabidopsis thaliana seed germination assay; assay type: in vivo
[4] = system: Nicotiana benthamiana leaves; experiment: Leaf dehydration assay (weight loss of pre-treated detached leaves in dry air flow); assay type: in vivo; conditions: for % weight loss (average): average of 5-10 leaves, control 29.51%; for effect on leaf weight loss / transpiration: pre-treatment: ABA 10 and 100 μM, analogues 10 μM, 6 h dry air flow
tobacco epidermal strips = experiment: Stomatal closure assay on epidermal strips; assay type: cell-based, Nicotiana tabacum
[5] = system: etiolated Arabidopsis thaliana seedlings
[6] = system: Arabidopsis thaliana seedlings
[7] = primary root, 10 μM, compared with control not-treated seedlings
[8] = 13 d old etiolated seedlings, 10 μM
[9] = lateral root, 10 μM, compared with control not-treated seedlings
[10] = 10 μM, compared with control not-treated seeds
[11] = 10 μM, compared with control not-treated epidermal strips
[12] = adventitious root, 10 μM, compared with control not-treated seedlings

Row | SMILES | PR ([1]; in vivo) | LR ([2]; in vivo) | effect on LR+ LRP density (per cm primary root) ([2]; in vivo) | effect on number of LR+ LRP (lateral root initiation) ([2]; in vivo) | Seed germination ([3]; in vivo) | effect on leaf weight loss / transpiration [4] | Stomata (tobacco epidermal strips) | effect on stomatal aperture (tobacco epidermal strips) | AR ([5]; in vivo) | effect on adventitious root formation ([5]; in vivo) | Shoot ([6]; in vivo) | effect on primary root growth ([1]; in vivo) | further results
1 | CC1=CC(=O)CC(C)(C)[C@@]1(O)/C=C/C(C)=C\C(=O)O [ABA, Abscisic acid, reference compound] | +++ | +++ | reduced the number of roots per cm primary root | strongly reduced the number of LR+ LRP | +++ | significantly less weight loss | +++ | rapidly induces stomatal closure | 0 | not affected | +++ |  | reduction of primary root length ([1]; in vivo): 5 fold; effect on seed germination ([3]; in vivo): inhibited seed germination stronger than pyrabactin; % weight loss (average) ([4]; leaves pre-treated with 10 μM): 18.54%; % weight loss (average) ([4]; leaves pre-treated with 100 μM): 16.99%; relative stomatal aperture (tobacco epidermal strips): 40%; time to 50% of closure of stomata (tobacco epidermal strips): ≤ 10 min
2 | CCOP(=O)(NCc1ccccn1)c1ccc(Br)c2ccccc12 (centres unmarked) [Analogue E1, Ethyl N-(pyridin-2-ylmethyl)-P-(4-bromonapht-1-yl)phosphonamidate] | + | ++ | strong density reduction (even stronger than ABA) | strong inhibitors | 0 | reduction of transpiration | − | did not cause closure of the stomata and even induced the opening | − |  | 0 | modest inhibitors of primary root elongation | 
3 | CCOP(=O)(NCc1ccccc1)c1ccc(F)c2ccccc12 (centres unmarked) [Analogue E6, Ethyl N-(benzyl)-P-(4-fluoronapht-1-yl)phosphonamidate] | ++ | +++ | strong density reduction (even stronger than ABA) | strong inhibitors | 0 |  | +++ | strongly induced stomatal closure | +++ | reduction of adventitious root formation, respectively stronger or similar to pyrabactin | ++ | reducing the root growth comparable to pyrabactin | effect on seed germination ([3]; in vivo): did not inhibit the germination; effect on shoot development ([6]; in vivo): inhibition of leaf size comparable with pyrabactin
4 | CCOP(=O)(NCc1ccncc1)c1ccc(Br)c2ccccc12 (centres unmarked) [Analogue E7, Ethyl N-(pyridin-4-ylmethyl)-P-(4-bromonapht-1-yl)phosphonamidate] | +++ | +++ |  | strong inhibitors | 0 |  | 0 | did not affect the size of the stomatal aperture | +++ | reduction of adventitious root formation, respectively stronger or similar to pyrabactin | +++ | strongly inhibited primary root growth | LR+ LRP density ([2]; in vivo): around 5 LR+ LRP per cm primary root; effect on shoot development ([6]; in vivo): strong inhibition of the seedling's shoot development
5 | CCOP(=O)(NCc1ccccn1)c1cccc2ccccc12 (centres unmarked) [Analogue E9, Ethyl N-(pyridin-2-ylmethyl)-P-(napht-1-yl)phosphonamidate] | 0 | + | reduced the numbers of LR+ LRP similarly to ABA | modest to weak inhibitors of lateral root formation | 0 | reduction of transpiration | 0 | did not affect the size of the stomatal aperture | − |  | 0 | modest inhibitors of primary root elongation | 
6 | O=P(O)(NCc1ccccn1)c1ccc(Br)c2ccccc12 [Analogue E10, Hydrogen N-(pyridin-2-ylmethyl)-P-(4-bromonapht-1-yl)phosphonamidate] |  |  |  |  |  | reduction of transpiration |  |  |  |  | 0 |  | effect on primary root growth ([1]; 10 μM): modest inhibitors of primary root elongation; PR [1, 7]: +; effect on LR+ LRP density (per cm primary root) [2, 8]: reduced the numbers of LR+ LRP similarly to ABA; effect on number of LR+ LRP (lateral root initiation) [2, 8]: modest to weak inhibitors of lateral root formation; LR [2, 9]: +; Seed germination [3, 10]: 0; effect on stomatal aperture (tobacco epidermal strips; 10 μM): intermediate stomatal closure; Stomata (tobacco epidermal strips; [11]): +; AR [5, 12]: −
7 | O=S(=O)(NCc1ccccn1)c1ccc(Br)c2ccccc12 [Pyrabactin, pyrabactin] |  |  |  |  |  |  |  |  |  |  |  |  | reduction of primary root length ([1]; 10 μM): 2.5 fold; PR [1, 7]: ++; effect on LR+ LRP density (per cm primary root) [2, 8]: significantly increased the LR+ LRP density; effect on number of LR+ LRP (lateral root initiation) [2, 8]: only did moderately affect lateral root initiation; LR [2, 9]: ++; Seed germination [3, 10]: ++; effect on seed germination ([3]; different concentrations, gradual and dose-dependent): inhibited seed germination; Stomata (tobacco epidermal strips; [11]): +; effect on stomatal aperture (tobacco epidermal strips; 10 μM, listed as pyrabactin): induced stomatal closure, rapidly but to a much lower degree than ABA; also recorded: demonstrated an effect on the stomata; effect on adventitious root formation ([5]; 10 μM): reduced the formation of these roots; AR [5, 12]: +++; effect on shoot development ([6]; 10 μM): leaf size was also significantly reduced; Shoot ([6]; 10 μM, compared with control not-treated seedlings): ++; effect on shoot development ([6]; 10 μM, listed as pyrabactin): seedlings with a smaller shoot than control seedlings
